Assay results reported in US20260191838A1, “COMBINATIONS COMPRISING A MENIN-MLL INHIBITOR AND A BCL-2 INHIBITOR” (JANSSEN PHARMACEUTICA NV, priority 2022, published 2026).

Test system: OCI-AML3 cells
Assay: Proliferation (spheroid) assay, OCI-AML3
Type: cell-based
Details: Homo sapiens, OCI-AML-3, 192 h; 8 days; read-out: spheroid assay_OCI-AML3 IC50
Description: The anti-proliferative effect of menin/MLL protein/protein interaction inhibitor test compounds was assessed in human leukemia cell lines. The cell line MOLM14 harbors a MLL translocation and expresses the MLL fusion protein MLL-AF9, respectively, as well as the wildtype protein from the second allele. OCI-AML3 cells that carry the NPM1c gene mutation were also tested. […] KO-52 was used as a control cell line containing two MLL (KMT2A) wildtype alleles in order to exclude compounds that display general cytotoxic effects.
MOLM14 cells were cultured in RPMI-1640 (Sigma Aldrich) supplemented with 10% heat-inactivated fetal bovine serum (HyClone), 2 mM L-glutamine (Sigma Aldrich) and 50 μg/ml gentamycin (Gibco). KO-52 and OCI-AML3 cell lines were propagated in alpha-MEM (Sigma Aldrich) supplemented with 20% heat-inactivated fetal bovine serum (HyClone), 2 mM L-glutamine (Sigma Aldrich) and 50 μg/ml gentamycin (Gibco).
In order to assess the anti-proliferative effects, 200 MOLM14 cells, 200° C. […] Spheroid like growth was measured in real-time by live-cell imaging (IncuCyteZOOM, Essenbio, 4× objective) acquiring images at day 8. Confluence (%) as a measure of spheroid size was determined using an integrated analysis tool.
In order to determine the effect of the test compounds over time, the confluence in each well as a measure of spheroid size, was calculated. […]

SMILES: CC(=O)N1CCC(CN2CC[C@@H](Cc3cn(-c4ccc(F)cc4C(=O)N(C)C(C)C)c4cncc(C)c34)C2)CC1 [Compound 51]
- IC50: 24 nM
